Test results: patent US20250283049A1, “AGENT FOR CULTURING ORGANOID IN ABSENCE OF EXTRACELLULAR MATRIX” (KEIO UNIVERSITY, priority 2022, published 2025)

Legend:
[1] = test system: phosphorylated ERK (Thr202/Tyr204); experiment: ERK phosphorylation by Western blotting in human small intestine-derived organoids; assay type: cell-based; conditions: absence of Matrigel; Lats-IN 10 μM
Description: Next, human small intestine-derived organoids were cultured in the absence or presence of Matrigel (registered trademark) and in the absence or presence of Lats-IN (final concentration: 10 μM), and ERK phosphorylated by EGF signaling was detected by Western blotting.
FIG. 17 presents graphs showing the results of Western blotting. In FIG. 17, “pERK” represents phosphorylated ERK, and “total ERK” represents total ERK (the sum of phosphorylated ERK and non-phosphorylated ERK). In addition, “pYAP” represents phosphorylated YAP, and “total YAP” represents total YAP (the sum of phosphorylated YAP and non-phosphorylated YAP). The antibody against phosphorylated ERK used was phospho-ERK (Thr202/Tyr204) (#4370, Cell Signaling Technology, Inc.). The antibody against total ERK used was total-ERK (#4695, Cell Signaling Technology, Inc.). The antibody against phosphorylated YAP used was phospho-YAP (Ser127) (#4911, Cell Signaling Technology, Inc.). The antibody against total YAP used was total-YAP (#14074, Cell Signaling Technology, Inc.).

[2] = test system: human small intestine-derived organoid; experiment: Culture of organoids in absence of Matrigel with LATS kinase inhibitor; cell number by ATP (CellTiter-Glo 3D); assay type: cell-based
Description: In this experimental example, a human small intestine-derived organoid and human large intestine-derived organoid established in the presence of Matrigel (registered trademark) were cultured in the absence of Matrigel (registered trademark) and in the presence of a LATS kinase inhibitor (final concentration: 10 μM), and their dynamics were observed. The procedure was the same as in Experimental Example 1, except that each organoid was cultured in the absence of Matrigel (registered trademark).
The upper left panel of FIG. 3 is a photograph of a control (Ctrl) human small intestine-derived organoid cultured in the absence of Lats-IN, and the upper center panel of FIG. 3 is a photograph of a human small intestine-derived organoid cultured in the presence of Lats-IN. The scale bar is 100 μm. […] The vertical axis of the graph represents luminescence intensity (relative value) indicating the amount of ATP present. […]
FIG. 8 presents graphs showing the results of measuring the proliferation of the human small intestine-derived and human large intestine-derived organoids in the absence of Lats-IN (Ctrl), in the presence of Lats-IN (Lats-IN), in the presence of Lats-IN and MYF01-37 (Lats-IN+MYF), and in the presence of MYF01-37 (MYF). The cell proliferation was measured by measuring ATP using a commercially available kit (product name “CellTiter-Glo 3D,” Promega Corporation). The vertical axis of the graph represents luminescence intensity (relative value) indicating the amount of ATP present. […]
FIG. 26 presents graphs showing the results of measuring cell number in each organoid after 6 days of culture by measuring ATP using a commercially available kit (product name “CellTiter-Glo 3D,” Promega Corporation). The vertical axis of the graph represents luminescence intensity (relative value) indicating the amount of ATP present.

[3] = test system: immunodeficient mouse (NOG mouse) colon; experiment: Orthotopic xenotransplantation of organoids established in absence of Matrigel; assay type: in vivo; conditions: organoids established in absence of Matrigel and presence of TRULI, 1×10^7 cells
Description: The human colon-derived organoids established in the absence of Matrigel (registered trademark) and in the presence of TRULI in Experimental Example 22 were orthotopically xenotransplanted into an immunodeficient mouse (NOG mouse) to examine whether they would engraft.
FIG. 31 is a schematic view explaining an overview of this experimental example. The human colon-derived organoids established in the absence of Matrigel (registered trademark) and in the presence of TRULI were electroporated with a green fluorescent protein (GFP) expression vector to obtain GFP-labeled human colon-derived organoids.
Subsequently, the GFP-labeled human colon-derived organoids were dissociated into single cells and then pre-cultured for 4 days in a medium supplemented with 2% Matrigel (registered trademark) or 2% collagen gel (50% type IA, 50% type IC). […]
Subsequently, the total cell number of the pre-cultured GFP-labeled human colon-derived organoids was counted, and the cells were suspended in Advanced DMEM/F12 medium supplemented with 10% (vol/vol) Matrigel (registered trademark) or type IA collagen. […]

Structure (SMILES): O=C(N=c1sccn1Cc1ccccc1)c1c[nH]c2ncccc12 [Lats-IN]
- ERK phosphorylation [1]: increased to a level equivalent to that in the presence of Matrigel
- cell proliferation (ATP luminescence) ([2]; Experimental Example 5, Lats-IN 10 μM alone): activated
- cell proliferation (cell number, ATP luminescence) ([2]; final concentration 10 μM, 7 days of culture, vs control): significantly activated
- engraftment of human colon-derived organoids established with TRULI [3]: could engraft
